Data as given in patent US20060134064A1, “Combined treatment with interferon-alpha and an epidermal growth factor receptor kinase inhibitor” (priority 2004, published 2006).
Read-outs that look alike come from different tables or passages of the source.

How the values were obtained:
colorectal cancer = settings: cited from earlier work
BL-17/0/X1 = assay: Crystal violet nuclear staining assay, bladder cancer cell line BL-17/0/X1; assay type: cell-based; settings: 2.5 μg/ml erlotinib, 96 h
Source text: (§1) It is known that 40-60% of bladder cancers over-express EGFR which provides an opportunity for targeted therapy.

MGHU3 = assay: Crystal violet nuclear staining assay, bladder cancer cell line MGHU3; assay type: cell-based; settings: 2.5 μg/ml erlotinib, 96 h
Source text: as §1

HT1376 = assay: Crystal violet nuclear staining assay, bladder cancer cell line HT1376; assay type: cell-based; settings: 2.5 μg/ml erlotinib, 96 h
Source text: as §1

BL-17/2 = assay: Crystal violet nuclear staining assay, bladder cancer cell line BL-17/2; assay type: cell-based; settings: 2.5 μg/ml erlotinib, 96 h
Source text: as §1

[1] = system: bladder cancer cell lines; settings: 10 μg/ml erlotinib; 8 of 9 cell lines
Experimental: Three different experimental schedules were performed: Single drug exposure over a range of concentrations of erlotinib, combination with IFN-α, and pre-treatment with IFN-α followed by erlotinib combined with IFN-α.
Cells were grown in 24-well plates and the antiproliferative effect was measured by crystal violet nuclear staining assay.

HER1/EGFR = assay: Cell-surface HER1/EGFR expression by immunofluorescent flow cytometry after IFNα treatment; assay type: cell-based, human; settings: IFNα 100 IU/mL
Experimental: The cell-surface HER1/EGFR levels at 72 h and 96 h of culture, with or without IFN-α (50 or 100 IU/ml), were measured by immunofluorescent flow cytometry. Cells were seeded in 60×15 mm dishes (FALCON™, BD) and treated with 100 IU/mL of IFN-α. The treated and untreated cells were harvested at different time intervals using 0.02% EDTA in PBS, then washed twice with ice-cold PBS and counted. The mouse monoclonal antibody against the extracellular domain of human HER1/EGFR (Catlog No: MO886, DAKO) diluted 1 in 100 in PBS was added to the cells (1×10^6 cells in 100 μL volume), while an irrelevant IgG 2b was used as the isotype-matched antibody control. After 60 min on ice, cells were washed and incubated with 100 μL of fluorescein-isothiocyanate (FITC)-conjugated goat-anti-mouse IgG (Catlog No: 81-6511, ZYMED), 1 in 200 dilution in PBS, on ice for 30 min in the dark. The cells were then washed again twice and resuspended in 1% formaldehyde in PBS. Cell surface immunofluorescence was analysed on a FACSCalibur (BD) using CELLQuest software equipped with a 5 W argon ion laser tuned to 488 nm at 200 mW. Levels of protein expression were estimated as the geometric mean of fluorescence intensity (MFI) of anti-HER1/EGFR minus that of the isotype-matched antibody control. Ten thousand singlet and viable cells of the individual treated and control samples were measured. Duplicate experiments with triplicate samples were performed for all cells.
Cell-surface HER1/EGFR expression by untreated cell lines: All cell lines were measured first to obtain an untreated level of HER1/EGFR. Cells were harvested after 72 h of culture and measured by flow cytometry. The HER1/EGFR value was calculated as the geometric mean fluorescence intensity of anti-HER1/EGFR detection minus that of isotype control. SW620 cells were HER1/EGFR-negative. Other cell lines including DLD-1, HCT116, HT29, KM12SM, LIM2099, LIM2408, LOVO and SW480 all positively expressed HER1/EGFR.
The relationship between HER1/EGFR expression and IFNα treatment was assessed in all cell lines. Cells were all cultured with or without 100 IU/mL of IFNα (which mimics serum levels in humans given subcutaneous interferon (Robinson S. P., et al. (1990) Breast Cancer Res. Treat.; 5:95-101) for 72 and 96 h. The cell-surface HER1/EGFR expression at 72 h of culture from untreated and treated groups of individual cell lines detected using anti-HER1/EGFR antibody minus isotype control is shown in FIG. 1. IFNα treatment was associated with significant up-regulation of cell-surface HER1/EGFR expression in 7 of 8 HER1/EGFR-positive cell lines, including DLD-1 (HER1/EGFR level (mean plus/minus standard deviation of the mean) treated versus that untreated: 17.89+0.60/10.86+0.51, paired t test, p=0.005; 95% confidence interval of the difference: 4.88−9.16), HCT116 (22.75+0.79/7.80+0.22, p<0.001; 13.52−16.36), HT29 (11.12+0.20/8.58+0.24, p=0.004; 1.82−3.27), LIM2099 (22.19+0.56/12.82+0.52, p=0.001; 7.87−10.86), LIM2408 (22.93+0.53/10.77+0.21, p=0.001; 10.35−13.97), LOVO (14.77+0.34/8.12+0.25, p=0.003; 5.2−8.1), and SW480 (27.09+0.76/14.10+0.33, p=0.002; 10.66−15.32) cells. In contrast, HER1/EGFR expression levels were not increased in KM12SM cells after IFNα treatment. […] Consistently, at 96 h of culture the cell-surface HER1/EGFR expression from untreated and treated groups of individual cell lines followed the same trend. Since up-regulation of HER1/EGFR expression was sustained between 72 and 96 h, we thus chose 72 h for IFNα pretreatment and 96 h for combination treatment introduced below.

Q: For `O=c1[nH]cc(F)c(=O)[nH]1` [5-fluorouracil], which response rates (colorectal cancer; single-agent treatment, advanced colorectal cancer) is on record?
A: about 10%

Q: Which results are given for `C#Cc1cccc(Nc2ncnc3cc(OCCOC)c(OCCOC)cc23)c1` [erlotinib, [6,7-bis(2-methoxyethoxy)-4-quinazolin-4-yl]-(3-ethynylphenyl)amine]?
A: growth rate of control cells (BL-17/0/X1): < 60%; growth rate of control cells (MGHU3): < 60%; growth rate of control cells (HT1376): < 60%; growth rate of control cells (BL-17/2): < 60%; growth rate of control [1]: < 60%

Q: With `O=C1[O][Pt]2([NH][C@@H]3CCCC[C@H]3[NH]2)[O]C1=O` [oxaliplatin] as the compound, how does the response rates (colorectal cancer; combined with 5-FU and leucovorin, first-line treatment for colorectal cancer) read?
A: 25-40%

Q: For IFNα, which “HER1/EGFR level (geometric mean fluorescence intensity minus isotype control), treated” value (HER1/EGFR; DLD-1 cells, 72 h, mean plus/minus SD) is on record?
A: 17.89 ± 0.60

Q: What about the “HER1/EGFR level (geometric mean fluorescence intensity minus isotype control), treated” value (HER1/EGFR; HCT116 cells, 72 h, mean plus/minus SD) of the same compound?
A: 22.75 ± 0.79

Q: What about the “Induction of HER1/EGFR expression by IFNα treatment” value (HER1/EGFR; HER1/EGFR-negative SW620 cells, 72 h) of the same compound?
A: unable to induce HER1/EGFR expression

Q: And the “HER1/EGFR level (geometric mean fluorescence intensity minus isotype control), treated” value (HER1/EGFR; HT29 cells, 72 h, mean plus/minus SD)?
A: 11.12 ± 0.20

Q: And the “HER1/EGFR expression levels after IFNα treatment” value (HER1/EGFR; KM12SM cells, 72 h)?
A: not increased

Q: What about the “HER1/EGFR level (geometric mean fluorescence intensity minus isotype control), treated” value (HER1/EGFR; LIM2099 cells, 72 h, mean plus/minus SD) of the same compound?
A: 22.19 ± 0.56

Q: And the “HER1/EGFR level (geometric mean fluorescence intensity minus isotype control), treated” value (HER1/EGFR; LIM2408 cells, 72 h, mean plus/minus SD)?
A: 22.93 ± 0.53

Q: What about the “HER1/EGFR level (geometric mean fluorescence intensity minus isotype control), treated” value (HER1/EGFR; LOVO cells, mean plus/minus SD (FIG. 1: LOVO measured at 24 h)) of the same compound?
A: 14.77 ± 0.34

Q: And the “HER1/EGFR level (geometric mean fluorescence intensity minus isotype control), treated” value (HER1/EGFR; SW480 cells, 72 h, mean plus/minus SD)?
A: 27.09 ± 0.76
